Reference: US20030105165A1, “Gap junctions and EDHF” (priority 2001, published 2003)
Like-named read-outs stand apart in the source and are kept apart here.

Assays:
[1] = test system: rabbit iliac artery rings; test: EDHF-type relaxation of isolated rabbit iliac artery rings constricted with phenylephrine; type: cell-based; conditions: for EC50: Oryctolagus cuniculus; for Maximal EDHF-type relaxations, % of PE-induced tone: approximate, at concentrations ~3 μM; for Maximal EDHF-type relaxations, % of PE-induced tone / Maximal EDHF-type relaxation, % of PE-induced tone (control): L-NAME 300 μM + indomethacin 10 μM
Method: Isolated Ring Preparations. Male New Zealand white rabbits (2-2.5 kg) were sacrificed with sodium pentobarbitone (120 mg/kg; i.v.) and the iliac artery removed and transferred to cold Holman's buffer of the following composition (mM): 120 NaCl, 5 KCl, 2.5 CaCl2, 1.3 NaH2PO4, 25 NaHCO3, 11 glucose, and 10 sucrose. […] Endothelium-intact rings were incubated for 40 min with N^G-nitro-L-arginine methyl ester (L-NAME, 300 μM) and indomethacin (10 μM) and following constriction with phenylephrine (PE) cumulative concentration-relaxation curves to ACh or A23187 were constructed. Some preparations were preincubated for 40 min with either 2′5′-dideoxyadenosine (2′5′-DDA, 200 μM), 3-isobutyl-1-methylxanthine (IBMX, 20 μM), 18α-GA (100 μM), glibenclamide (10 μM), the combination of charybdotoxin (100 nM) and apamin (300 nM), or the combination of charybdotoxin (100 nM), apamin (300 nM) and IBMX (20 μM). Concentration-response curves to ACh and A23187 were also constructed for endothelium-denuded rings in the absence/presence of IBMX (20 μM). In experiments with IBMX the concentration of PE used to induce tone was increased from 1 to 3 μM. All reagents were obtained from Sigma, U.K.
(§1) Statistical Analysis All data are given as mean±SEM, where n denotes the number of animals studied for each data point, and were compared by the Student's t-test for paired or unpaired data as appropriate. P<0.05 was considered as significant. Concentration-response curves were assessed by one-way analysis of variance (ANOVA) followed by the Bonferroni multiple comparisons test.

[2] = test system: sandwich preparations of rabbit iliac artery; test: 'Sandwich' bioassay preparations of iliac artery (endothelium-intact donor ring, denuded detector strip); type: cell-based
Text: ‘Sandwich’ preparations. Rings of iliac artery 2-3 mm wide were denuded of endothelium, cut into strips and pierced ˜2 mm from each end using a Monoject needle (0.9 mm×40 mm). These strips were introduced into the lumen of rings of endothelium-intact iliac artery 4-5 mm wide and the tissues sutured together. Composite preparations were then mounted in a Mulvany Multi Myograph (Danish Myo Technology) with the pierced denuded strips hooked onto the large vessel mountings. Tension was initially set at ˜0.25 g and readjusted during an equilibrium period of 1 h. The preparations were then incubated for 40 min with L-NAME (300 μM) and indomethacin (10 μM), constricted with PE (1 or 3 μM), and concentration-response curves constructed for ACh in the presence/absence of IBMX (20 μM), or A23187 in the presence/absence of IBMX (20 μM) or 2′5′DDA (200 μM).
as §1

[3] = test system: smooth muscle cAMP levels; test: Radioimmunoassay of cAMP in iliac artery rings; type: cell-based, rabbit; conditions: for Increase (elevation) in smooth muscle cAMP levels: rings incubated with L-NAME and indomethacin, endothelium-dependent
Method: (§2) Radioimmunoassay. Multiple rings from the same artery were incubated in oxygenated Holmans buffer containing L-NAME (300 μM) and indomethacin (10 μM) for 40 min at 37° C. in the presence or absence of 18α-GA (100 μM). Rings were frozen in liquid N2 at time points up to 180 s following addition of ACh or A23187 and stored at −70° C. before extraction of cAMP or cGMP in 6% trichloroacetic acid, followed by neutralization with water saturated diethyl ether and subsequent radioimmunoassay (Amersham UK). PE (1 μM) was added 3 min before the initial control point and control experiments were performed with endothelium-denuded rings. Nucleotide levels were expressed relative to protein content (27).

[4] = test system: rabbit iliac artery rings; type: cell-based; conditions: for Effect on PE contractions: 2′,5′-DDA 200 μM, glibenclamide 10 μM, charybdotoxin 100 nM plus apamin 300 nM
Method: Isolated Ring Preparations. Male New Zealand white rabbits (2-2.5 kg) were sacrificed with sodium pentobarbitone (120 mg/kg; i.v.) and the iliac artery removed and transferred to cold Holman's buffer of the following composition (mM): 120 NaCl, 5 KCl, 2.5 CaCl2, 1.3 NaH2PO4, 25 NaHCO3, 11 glucose, and 10 sucrose. The vessels were stripped of adherent tissue, and rings 2-3 mm wide cut and suspended in organ chambers containing gassed (95% 02, 5% CO2, pH 7.4) buffer at 37 C. Tension was set at 0.25 g and during an equilibrium period of 1 h the tissues were repeatedly washed with fresh buffer and tension readjusted following stress relaxation. Endothelium-intact rings were incubated for 40 min with N^G-nitro-L-arginine methyl ester (L-NAME, 300 μM) and indomethacin (10 μM) and following constriction with phenylephrine (PE) cumulative concentration-relaxation curves to ACh or A23187 were constructed. Some preparations were preincubated for 40 min with either 2′5′-dideoxyadenosine (2′5′-DDA, 200 μM), 3-isobutyl-1-methylxanthine (IBMX, 20 μM), 18α-GA (100 μM), glibenclamide (10 μM), the combination of charybdotoxin (100 nM) and apamin (300 nM), or the combination of charybdotoxin (100 nM), apamin (300 nM) and IBMX (20 μM). Concentration-response curves to ACh and A23187 were also constructed for endothelium-denuded rings in the absence/presence of IBMX (20 μM). In experiments with IBMX the concentration of PE used to induce tone was increased from 1 to 3 μM. All reagents were obtained from Sigma, U.K.

[5] = test system: subintimal smooth muscle cells of rabbit iliac artery strips; test: Membrane potential experiments (sharp microelectrode) in iliac artery strips; type: cell-based
Method: Membrane Potential Experiments. Iliac artery strips were held adventitia down in an oxygenated (95% O2, 5% CO2) organ chamber by a Harp slice grid (ALA Scientific Instruments, USA) superfused (2 ml/min at 37° C.) with Holmans solution containing 300 μM L-NAME and 10 μM indomethacin. Transmembrane potential was recorded with glass capillary microelectrodes (tip resistance of 60-110 M[…] filled with 3M KCl and connected to the headstage of a SEC-10LX amplifier (NPI Electronic, Germany). Successful impalements were achieved following a sudden negative drop in potential from baseline and a stable signal for at least 2 min. To ensure recordings were made from smooth muscle cells the microelectrode was advanced into the subintima using a PCS-5000 micromanipulator (Burleigh Instruments, UK) until there had been 2-3 such negative deflections. After first obtaining control responses to ACh by direct administration into the organ chamber under conditions of no flow, the strips were washed with fresh buffer before incubation with either 200 μM […] alone or the combination of 200 μM 2′,3′-DDA plus 30 μM IBMX followed by repeat exposure to ACh.

[6] = test system: gap junctions in isolated rabbit femoral arteries; test: Dye transfer (calcein AM) from endothelium to media in perfused femoral arteries; type: cell-based; conditions: for Space constant of decay of medial fluorescence: calcein AM, control 8.54 μm; for Dye within the vessel wall after intraluminal perfusion: 10 μM dye perfused through the lumen for 30 min
Method: Dye Transfer. […] In control experiments arteries were perfused with 10 μM calcein, which is membrane impermeable. The vessels were subsequently removed from the myograph and fixed in 0.1 M PBS containing 0.2% glutaraldehyde and 2% formalin for 90 min before cryopreservation in OCT compound (Agar Scientific, […], UK), cooled by liquid N2. Cryosections of transverse rings (10 μm thick) were prepared and mounted onto poly-L-lysine-coated slides under Fluorsave (Calbiochem) and imaged with a TCS four-dimensional confocal laser scanning system (Leica) with the filters set for 490 nm excitation and 525 nm emission. A gallery of several images was collected at 0.5-μm steps for each sample followed by image processing by using […] software to obtain a maximum projection image.

cGMP levels = test: Radioimmunoassay of cGMP in iliac artery rings; type: cell-based, rabbit; conditions: in the presence of L-NAME and indomethacin
Method: as §2

pig coronary artery = conditions: cited from earlier work
[7] = endothelium-intact rings, L-NAME + indomethacin, control of IBMX / 2′,5′-DDA series, read-out: EC50 of EDHF-type relaxation (control)
[8] = endothelium-intact rings, control of IBMX / 2′,5′-DDA series

## C[C@H]1O[C@@H](n2cnc3c(N)ncnc32)C[C@@H]1O [2′,5′-DDA, 2′,5′-dideoxyadenosine]
[1]; 2′,5′-DDA 200 μM, A23187-evoked, endothelium-intact rings
  Maximal relaxation to A23187 in presence of 2′,5′-DDA, % of PE-induced tone: 40.3±8.3%
[1]; 2′,5′-DDA 200 μM, ACh-evoked, endothelium-intact rings
  Maximal relaxation to ACh in presence of 2′,5′-DDA: 11.0±1.9%
[2]; 2′,5′-DDA 200 μM
  Maximal relaxation to A23187 in sandwich preparations with 2′,5′-DDA, % of PE-induced tone: 18.5±9.2%
[3]; 2′,5′-DDA 200 μM, ACh 3 μM
  Effect on transient peak in cAMP levels evoked by ACh: abolished
[4]
  Effect on PE contractions: unaffected

## Nc1ncnc2c1ncn2[C@H]1CC[C@@H](CO)O1 [2′, 3′-DDA, 2′,3′-dideoxyadenoine]
[5]; 200 μM, ACh-evoked
  Attenuation of transmission of electrical changes in endothelial membrane potential into subintimal smooth muscle cells: ~75%

## Nc1nc2c(nc(Br)n2[C@@H]2O[C@@H]3COP(=O)(O)O[C@H]3[C@H]2O)c(=O)[nH]1 [8-bromo-cGMP]
[6]; 1 mM nucleotide analogue
  Space constant of decay of medial fluorescence: 8.39 ± 0.44 μm

## CC1(C)[C@@H](O)CC[C@]2(C)[C@H]3C(=O)C=C4[C@H]5C[C@@](C)(C(=O)O)CC[C@]5(C)CC[C@@]4(C)[C@]3(C)CC[C@@H]12 [18α-GA, 18α-glycyrrhetinic acid]
[1]; 18α-GA 100 μM
  Effect on EDHF-type relaxations evoked by A23187: had no effect
  Effect on EDHF-type relaxations evoked by ACh: effectively abolished
[3]; 18α-GA 100 μM, A23187 3 μM
  Effect on nucleotide (cAMP) accumulation evoked by A23187: no significant effect
[3]; 18α-GA 100 μM, ACh 3 μM
  Effect on transient rise in cAMP levels evoked by ACh: abolished

## CNc1ccc2oc(C[C@H]3O[C@@]4(CC[C@H]3C)O[C@H]([C@H](C)C(=O)c3ccc[nH]3)[C@H](C)C[C@H]4C)nc2c1C(=O)O [A23187]
[1]; read-out: EC50 of A23187 relaxation (control of charybdotoxin/apamin series)
  EC50: 291 ± 128 nM
[1]; [7]
  EC50: 328 ± 123 nM
[1]
  Maximal EDHF-type relaxations, % of PE-induced tone: ~40%
[1]; endothelium-denuded rings
  Relaxation after endothelial denudation: abolished
[1]; endothelium-denuded rings, IBMX 20 μM
  Relaxation in endothelium-denuded rings incubated with IBMX, % of PE-induced tone: 21.7±3.6%
[1]; [8]
  Maximal EDHF-type relaxation, % of PE-induced tone (control): 50.2±5.6%
[1]; endothelium-intact rings, L-NAME + indomethacin
  Maximal relaxation to A23187, % of PE-induced tone (control of charybdotoxin/apamin series): 50.0±5.8%
[2]; L-NAME 300 μM + indomethacin 10 μM, no modulator
  Maximal EDHF-type relaxation in sandwich preparations, % of PE-induced tone: 52.0±8.0%
[2]; Oryctolagus cuniculus, read-out: EC50 of relaxation in sandwich preparations
  EC50: 240 ± 40 nM
[3]; agonist 3 μM, endothelium-intact rings, L-NAME 300 μM + indomethacin 10 μM
  Time of peak in cAMP levels: 40 to 50 s
[3]; endothelium-denuded, basal 3.97±0.49 pmol/mg protein
  Change of cAMP level in endothelium-denuded preparations: did not significantly increase
[3]
  Increase (elevation) in smooth muscle cAMP levels: 1.5 fold
cGMP levels
  Effect on cGMP levels: unaltered

## CC(=O)OCC[N+](C)(C)C [ACh, acetylcholine]
[1]; [7]
  EC50: 555 ± 121 nM
[1]
  Maximal EDHF-type relaxations, % of PE-induced tone: ~40%
[1]; [8]
  Maximal EDHF-type relaxation, % of PE-induced tone (control): 36.0±5.0%
[3]
  Increase (elevation) in smooth muscle cAMP levels: 1.5 fold
[5]; 3 μM Ach, intact endothelium
  Subintimal hyperpolarization sustained below baseline: ~20 mV

## CC(C)Cn1c(=O)n(C)c(=O)c2[nH]cnc21 [IBMX, 3-isobutyl-1-methylxanthine]
[1]; IBMX 20 μM, A23187-evoked, endothelium-intact rings, control 50.2%
  Maximal relaxation to A23187 in presence of IBMX: 73.0 ± 8.5%
[1]; IBMX 20 μM, ACh-evoked, endothelium-intact rings, control 36.0%
  Maximal relaxation to ACh in presence of IBMX: 65.5±4.5%
[2]; IBMX 20 μM
  Maximal relaxation to A23187 in sandwich preparations with IBMX: 70.0±6.50%
[5]; IBMX 30 μM after 200 μM 2′,3′-DDA
  Reversal of the 2′,3′-DDA block of hyperpolarization: completely reversed
[6]; 20 μM IBMX
  Space constant of decay of medial fluorescence: 11.50±0.80 μm and ≈ 12 μm

## CNC[C@H](O)c1cccc(O)c1 [PE, phenylephrine]
[4]; 1 μM PE, L-NAME 300 μM and indomethacin 10 μM, intact endothelium, pooled data
  PE-evoked constrictions: 2.0 ± 0.1 g
[4]; 3 μM PE, IBMX 20 μM, pooled data
  Initial tension restored by PE in presence of IBMX: 1.8 ± 0.1 g

## O=C(O)CN(CC(=O)O)Cc1cc2c(cc1O)Oc1cc(O)c(CN(CC(=O)O)CC(=O)O)cc1C21OC(=O)c2ccccc21 [calcein]
[6]
  Dye within the vessel wall after intraluminal perfusion: only autofluorescence of the internal elastic lamina was evident

## COc1cc2c3cc1Oc1cc(ccc1O)C[C@@H]1c4c(cc(OC)c(O)c4Oc4ccc(cc4)C[C@@H]3N(C)CC2)CC[N+]1(C)C [d-tubocurarine]
Pig coronary artery
  Effect on endothelial hyperpolarization evoked by 0.5 μM A23187: abolished
  Effect on mechanical relaxation and endothelium and smooth muscle hyperpolarizations evoked by substance P: inhibited
  Effect on relaxation and smooth muscle hyperpolarization evoked by 0.5 μM A23187: unaffected

## COc1ccc(Cl)cc1C(=O)NCCc1ccc(S(=O)(=O)NC(=O)NC2CCCCC2)cc1 [glibenclamide]
[1]; glibenclamide 10 μM
  Effect on EDHF-type relaxations evoked by A23187: did not significantly affect
  Effect on EDHF-type relaxations evoked by ACh: did not significantly affect
[4]
  Effect on PE contractions: unaffected

## calcein AM
[6]
  Dye within the vessel wall after intraluminal perfusion: detected within the vessel wall
[6]; calcein AM 10 μM, L-NAME + indomethacin
  Space constant of decay of medial fluorescence (control conditions): 8.54±0.39 μm
